Data as given in ChEMBL document CHEMBL1201861, “Genomics of Drug Sensitity in Cancer screening data, Wellcome Trust Sanger Institute”.

Legend:
Test in all cases: cells
[1] = tested on: COR-L88; format: functional, cell-based; settings: Homo sapiens;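 further: growth inhibition of COR-L88 cells, read out with a cell viability assay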
Description: SANGER: Inhibition of human COR-L88 cell growth in a cell viability assay.

[2] = tested on: DU-145; format: functional, cell-based, Homo sapiens; settings: Homo sapiens, DU-145
Description: SANGER: Inhibition of human DU-145 cell growth in a cell viability assay.

[3] = tested on: G-402; format: functional, cell-based, Homo sapiens; settings: Homo sapiens, G-402
Description: SANGER: Inhibition of human G-402 cell growth in a cell viability assay.

[4] = tested on: GAMG; format: functional, cell-based, Homo sapiens; settings: Homo sapiens, GAMG;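 further: cell growth inhibition measured by a viability assay in the GAMG human cell line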
Description: SANGER: Inhibition of human GAMG cell growth in a cell viability assay.

[5] = tested on: HCC1395; format: functional, cell-based, Homo sapiens; settings: Homo sapiens, HCC1395;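 further: growth inhibition of HCC1395 cells, read out by a cell viability assay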
Description: SANGER: Inhibition of human HCC1395 cell growth in a cell viability assay.

[6] = tested on: HCC2218; format: functional, cell-based; settings: Homo sapiens;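 further: cell viability assay read-out, with IC50 given as the concentration that inhibits growth of the cell line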
Description: SANGER: Inhibition of human HCC2218 cell growth in a cell viability assay.

[7] = tested on: HCE-T; format: functional, cell-based, Homo sapiens; settings: Homo sapiens, HCE-T;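 further: cell viability assay read-out, reporting inhibition of HCE-T cell growth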
Description: SANGER: Inhibition of human HCE-T cell growth in a cell viability assay.

[8] = tested on: HD-MY-Z; format: functional, cell-based, Homo sapiens; settings: Homo sapiens, HD-MY-Z;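 further: growth inhibition of HD-MY-Z cells, read out with a cell viability assay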
Description: SANGER: Inhibition of human HD-MY-Z cell growth in a cell viability assay.

[9] = tested on: HDLM-2; format: functional, cell-based; settings: Homo sapiens;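 further: cell viability assay measuring suppression of HDLM-2 proliferation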
Description: SANGER: Inhibition of human HDLM-2 cell growth in a cell viability assay.

[10] = tested on: HEL; format: functional, cell-based, Homo sapiens; settings: Homo sapiens, HEL;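 further: growth inhibition of HEL cells, read out with a cell viability assay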
Description: SANGER: Inhibition of human HEL cell growth in a cell viability assay.

[11] = tested on: HSC-2; format: functional, cell-based, Homo sapiens; settings: Homo sapiens, HSC-2;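 further: growth inhibition of human HSC-2 cells, read out by a cell viability assay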
Description: SANGER: Inhibition of human HSC-2 cell growth in a cell viability assay.

[12] = tested on: HT-1080; format: functional, cell-based, Homo sapiens; settings: Homo sapiens, HT-1080
Description: SANGER: Inhibition of human HT-1080 cell growth in a cell viability assay.

[13] = tested on: IA-LM; format: functional, cell-based, Homo sapiens; settings: Homo sapiens, IA-LM;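 further: cell viability assay measuring growth inhibition of human IA-LM cells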
Description: SANGER: Inhibition of human IA-LM cell growth in a cell viability assay.

[14] = tested on: K5; format: functional, cell-based, Homo sapiens; settings: Homo sapiens, K5
Description: SANGER: Inhibition of human K5 cell growth in a cell viability assay.

[15] = tested on: LS-1034; format: functional, cell-based, Homo sapiens; settings: Homo sapiens, LS-1034
Description: SANGER: Inhibition of human LS-1034 cell growth in a cell viability assay.

[16] = tested on: MDA-MB-175-VII; format: functional, cell-based, Homo sapiens; settings: Homo sapiens, MDA-MB-175-VII
[17] = tested on: MOLT-16; format: functional, cell-based; settings: Homo sapiens;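 further: growth inhibition of human MOLT-16 cells, read out with a cell viability assay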
Description: SANGER: Inhibition of human MOLT-16 cell growth in a cell viability assay.

[18] = tested on: MOLT-4; format: functional, cell-based; settings: Homo sapiens;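 further: growth inhibition of MOLT-4 cells, determined with a cell viability readout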
Description: SANGER: Inhibition of human MOLT-4 cell growth in a cell viability assay.

[19] = tested on: Mo; format: functional, cell-based; settings: Homo sapiens
Description: SANGER: Inhibition of human Mo-T cell growth in a cell viability assay.

[20] = tested on: NCI-H1155; format: functional, cell-based; settings: Homo sapiens;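 further: cell growth inhibition measured by a viability assay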
Description: SANGER: Inhibition of human NCI-H1155 cell growth in a cell viability assay.

[21] = tested on: NCI-H1563; format: functional, cell-based, Homo sapiens; settings: Homo sapiens, NCI-H1563;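 further: growth inhibition of human NCI-H1563 cells, read out with a cell viability assay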
Description: SANGER: Inhibition of human NCI-H1563 cell growth in a cell viability assay.

[22] = tested on: NCI-H1755; format: functional, cell-based, Homo sapiens; settings: Homo sapiens, NCI-H1755;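 further: cell viability readout used to measure growth inhibition of NCI-H1755 cells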
Description: SANGER: Inhibition of human NCI-H1755 cell growth in a cell viability assay.

[23] = tested on: NCI-H28; format: functional, cell-based, Homo sapiens; settings: Homo sapiens, NCI-H28;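 further: growth inhibition of human NCI-H28 cells, read out as cell viability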
Description: SANGER: Inhibition of human NCI-H28 cell growth in a cell viability assay.

[24] = tested on: NCI-H720; format: functional, cell-based; settings: Homo sapiens;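 further: growth inhibition of human NCI-H720 cells determined by a cell viability assay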
Description: SANGER: Inhibition of human NCI-H720 cell growth in a cell viability assay.

[25] = tested on: OVCAR-5; format: functional, cell-based, Homo sapiens; settings: Homo sapiens, OVCAR-5;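 further: growth inhibition of human OVCAR-5 cells, read out with a cell viability assay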
Description: SANGER: Inhibition of human OVCAR-5 cell growth in a cell viability assay.

[26] = tested on: PA-1; format: functional, cell-based, Homo sapiens; settings: Homo sapiens, PA-1;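 further: IC50 for suppression of PA-1 cell proliferation, determined with a cell viability read-out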
Description: SANGER: Inhibition of human PA-1 cell growth in a cell viability assay.

[27] = tested on: PC-3; format: functional, cell-based, Homo sapiens; settings: Homo sapiens, PC-3;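 further: cell viability assay measuring growth inhibition of PC-3 cells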
Description: SANGER: Inhibition of human PC-3 cell growth in a cell viability assay.

[28] = tested on: RERF-LC-MS; format: functional, cell-based, Homo sapiens; settings: Homo sapiens, RERF-LC-MS;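 further: growth inhibition of human RERF-LC-MS cells, read out by a cell viability assay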
Description: SANGER: Inhibition of human RERF-LC-MS cell growth in a cell viability assay.

[29] = tested on: RPMI-2650; format: functional, cell-based, Homo sapiens; settings: Homo sapiens, RPMI-2650
Description: SANGER: Inhibition of human RPMI-2650 cell growth in a cell viability assay.

[30] = tested on: RPMI-7951; format: functional, cell-based, Homo sapiens; settings: Homo sapiens, RPMI-7951
Description: SANGER: Inhibition of human RPMI-7951 cell growth in a cell viability assay.

[31] = tested on: RPMI-8226; format: functional, cell-based; settings: Homo sapiens
Description: SANGER: Inhibition of human RPMI-8226 cell growth in a cell viability assay.

[32] = tested on: RVH-421; format: functional, cell-based, Homo sapiens; settings: Homo sapiens, RVH-421
Description: SANGER: Inhibition of human RVH-421 cell growth in a cell viability assay.

[33] = tested on: SBC-5; format: functional, cell-based, Homo sapiens; settings: Homo sapiens, SBC-5;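 further: cell viability assay read-out, IC50 is the concentration that inhibits growth of the cells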
Description: SANGER: Inhibition of human SBC-5 cell growth in a cell viability assay.

[34] = tested on: SCC-4; format: functional, cell-based, Homo sapiens; settings: Homo sapiens, SCC-4;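 further: growth inhibition of human SCC-4 cells, read out as cell viability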
Description: SANGER: Inhibition of human SCC-4 cell growth in a cell viability assay.

[35] = tested on: SCC-9; format: functional, cell-based, Homo sapiens; settings: Homo sapiens, SCC-9;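 further: Read-out is a cell viability assay, with values giving inhibition of cell growth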
Description: SANGER: Inhibition of human SCC-9 cell growth in a cell viability assay.

[36] = tested on: SF-126; format: functional, cell-based, Homo sapiens; settings: Homo sapiens, SF-126;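 further: growth inhibition of human SF126 cells, read out with a cell viability assay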
Description: SANGER: Inhibition of human SF126 cell growth in a cell viability assay.

[37] = tested on: SK-LMS-1; format: functional, cell-based, Homo sapiens; settings: Homo sapiens, SK-LMS-1;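 further: growth inhibition of human SK-LMS-1 cells, read out with a cell viability assay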
Description: SANGER: Inhibition of human SK-LMS-1 cell growth in a cell viability assay.

[38] = tested on: SK-MEL-1; format: functional, cell-based; settings: Homo sapiens;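 further: growth inhibition of human SK-MEL-1 cells, read out by a cell viability assay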
Description: SANGER: Inhibition of human SK-MEL-1 cell growth in a cell viability assay.

[39] = tested on: SNU-449; format: functional, cell-based, Homo sapiens; settings: Homo sapiens, SNU-449
Description: SANGER: Inhibition of human SNU-449 cell growth in a cell viability assay.

[40] = tested on: SW 962; format: functional, cell-based, Homo sapiens; settings: Homo sapiens, SW 962;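 further: growth inhibition of human SW962 cells, read out by a cell viability assay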
Description: SANGER: Inhibition of human SW962 cell growth in a cell viability assay.

[41] = tested on: A204; format: functional, cell-based, Homo sapiens; settings: Homo sapiens, A204;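 further: growth inhibition of human A204 cells, read out with a cell viability assay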
Description: SANGER: Inhibition of human A204 cell growth in a cell viability assay.

[42] = tested on: A-427; format: functional, cell-based, Homo sapiens; settings: Homo sapiens, A-427;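 further: growth inhibition of human A-427 cells, read out by a cell viability assay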
Description: SANGER: Inhibition of human A427 cell growth in a cell viability assay.

[43] = tested on: ABC-1; format: functional, cell-based, Homo sapiens; settings: Homo sapiens, ABC-1;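 further: growth inhibition of human ABC-1 cells, read out by a cell viability assay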
Description: SANGER: Inhibition of human ABC-1 cell growth in a cell viability assay.

[44] = tested on: BB65-RCC; format: functional, cell-based, Homo sapiens; settings: Homo sapiens, BB65-RCC;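 further: growth inhibition of the cell line, measured with a cell viability assay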
Description: SANGER: Inhibition of human BB65-RCC cell growth in a cell viability assay.

[45] = tested on: BEN; format: functional, cell-based, Homo sapiens; settings: Homo sapiens, BEN;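 further: growth inhibition of the BEN cell line, read out with a cell viability assay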
Description: SANGER: Inhibition of human BEN cell growth in a cell viability assay.

[46] = tested on: Becker; format: functional, cell-based, Homo sapiens; settings: Homo sapiens, Becker;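 further: growth inhibition of Becker cells, read out with a cell viability assay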
Description: SANGER: Inhibition of human Becker cell growth in a cell viability assay.

[47] = tested on: C8166; format: functional, cell-based; settings: Homo sapiens;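 further: growth inhibition of human C8166 cells measured by a cell viability assay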
Description: SANGER: Inhibition of human C8166 cell growth in a cell viability assay.

[48] = tested on: TE-5; format: functional, cell-based, Homo sapiens; settings: Homo sapiens, TE-5;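 further: inhibition of cell growth, read out by a cell viability assay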
Description: SANGER: Inhibition of human TE-5 cell growth in a cell viability assay.

[49] = tested on: UO-31; format: functional, cell-based; settings: Homo sapiens;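 further: cell viability assay measuring inhibition of cell growth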
Description: SANGER: Inhibition of human U031 cell growth in a cell viability assay.

[50] = tested on: U-251; format: functional, cell-based, Homo sapiens; settings: Homo sapiens, U-251;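 further: growth inhibition of human U-251 cells, read out through a cell viability assay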
Description: SANGER: Inhibition of human U251 cell growth in a cell viability assay.

[51] = tested on: CHL-1; format: functional, cell-based, Homo sapiens; settings: Homo sapiens, CHL-1;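 further: cell growth inhibition, read out with a cell viability assay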
Description: SANGER: Inhibition of human CHL-1 cell growth in a cell viability assay.

[52] = tested on: COLO-684; format: functional, cell-based; settings: Homo sapiens
Description: SANGER: Inhibition of human COLO-684 cell growth in a cell viability assay.

CC(=O)O[C@@H]1[C@@H](OC(C)=O)[C@@H](O)[C@H](Oc2c(-c3ccc(O)cc3)oc3cc(O)cc(O)c3c2=O)O[C@H]1C
IC50 [1]: > 10000 nM
IC50 [2]: > 10000 nM
IC50 [3]: > 10000 nM
IC50 [4]: > 10000 nM
IC50 [5]: > 10000 nM
IC50 [6]: 3840 nM
IC50 [7]: > 10000 nM
IC50 [8]: > 10000 nM
IC50 [9]: > 10000 nM
IC50 [10]: > 10000 nM
IC50 [11]: > 10000 nM
IC50 [12]: > 10000 nM
IC50 [13]: > 10000 nM
IC50 [14]: > 10000 nM
IC50 [15]: > 10000 nM
IC50 [16]: > 10000 nM
IC50 [17]: > 10000 nM
IC50 [18]: > 10000 nM
IC50 [19]: > 10000 nM
IC50 [20]: > 10000 nM
IC50 [21]: > 10000 nM
IC50 [22]: > 10000 nM
IC50 [23]: > 10000 nM
IC50 [24]: > 10000 nM
IC50 [25]: > 10000 nM
IC50 [26]: > 10000 nM
IC50 [27]: > 10000 nM
IC50 [28]: > 10000 nM
IC50 [29]: > 10000 nM
IC50 [30]: > 10000 nM
IC50 [31]: > 10000 nM
IC50 [32]: > 10000 nM
IC50 [33]: > 10000 nM
IC50 [34]: > 10000 nM
IC50 [35]: > 10000 nM
IC50 [36]: > 10000 nM
IC50 [37]: > 10000 nM
IC50 [38]: 9050 nM
IC50 [39]: > 10000 nM
IC50 [40]: > 10000 nM
IC50 [41]: > 10000 nM
IC50 [42]: > 10000 nM
IC50 [43]: > 10000 nM
IC50 [44]: > 10000 nM
IC50 [45]: > 10000 nM
IC50 [46]: > 10000 nM
IC50 [47]: > 10000 nM
IC50 [48]: > 10000 nM
IC50 [49]: > 10000 nM
IC50 [50]: > 10000 nM
IC50 [51]: > 10000 nM
IC50 [52]: > 10000 nM

CCC1=C[C@@H]2CN(C1)Cc1c([nH]c3ccccc13)[C@@](C(=O)OC)(c1cc3c(cc1OC)N(C)[C@H]1[C@@](O)(C(=O)OC)[C@H](OC(C)=O)[C@]4(CC)C=CCN5CC[C@]31[C@@H]54)C2 [VINORELBINE]
IC50 [1]: 34.8 nM
IC50 [2]: 4.81 nM
IC50 [3]: 32.1 nM
IC50 [4]: 13 nM
IC50 [5]: 15.9 nM
IC50 [6]: 57.1 nM
IC50 [7]: > 64 nM
IC50 [8]: 29.2 nM
IC50 [9]: 15.9 nM
IC50 [10]: 38.3 nM
IC50 [11]: 2.25 nM
IC50 [12]: 2.49 nM
IC50 [13]: 3.71 nM
IC50 [14]: 41.9 nM
IC50 [15]: > 64 nM
IC50 [16]: > 64 nM
IC50 [17]: 12.8 nM
IC50 [18]: 6.66 nM
IC50 [19]: > 64 nM
IC50 [20]: > 64 nM
IC50 [21]: 12.8 nM
IC50 [22]: 17.4 nM
IC50 [23]: > 64 nM
IC50 [24]: > 64 nM
IC50 [25]: > 64 nM
IC50 [26]: 3.12 nM
IC50 [27]: > 64 nM
IC50 [28]: 10.2 nM
IC50 [29]: 10 nM
IC50 [30]: 8.82 nM
IC50 [31]: 17 nM
IC50 [32]: 3.88 nM
IC50 [33]: 2.08 nM
IC50 [34]: 2.58 nM
IC50 [35]: 2.05 nM
IC50 [36]: > 64 nM
IC50 [37]: 1.46 nM
IC50 [38]: > 64 nM
IC50 [39]: > 64 nM
IC50 [40]: 27.8 nM
IC50 [41]: 3.21 nM
IC50 [42]: 3.1 nM
IC50 [43]: 3.02 nM
IC50 [44]: 61.8 nM
IC50 [45]: 58.1 nM
IC50 [46]: 5.39 nM
IC50 [47]: 17.6 nM
IC50 [48]: 11.7 nM
IC50 [49]: > 64 nM
IC50 [50]: 6.89 nM
IC50 [51]: 4.6 nM
IC50 [52]: 13.7 nM
